The results in this text go back to publication PMC10104807, “Modulation of tau tubulin kinases (TTBK1 and TTBK2) impacts ciliogenesis” (Scientific Reports, 2023).

What all share (assay): DiscoverX scanMAX binding assay
Common to all, as to details: 1 μM

For assay [1], the target named is T1, CDK8 (Homo sapiens, UniProt P49336).
T1 construct: purchased Eurofins (radiometric) / Eurofins DiscoverX scanMAX / Reaction Biology / SignalChem
The procedure, abridged:
(§1)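 Readout: PoC. Format: binding assay, one concentration (1 µM). Panel: 403 wild-type human kinases.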

The target in assay [2] is T2, PRKD3 (Homo sapiens, UniProt O94806).
T2 construct: purchased Eurofins (radiometric) / Eurofins DiscoverX scanMAX / Reaction Biology / SignalChem
Put shortly:
as §1

For assay [3], the target named is T3, CDC2L2 (Homo sapiens, UniProt Q9UQ88).
T3 construct: purchased Eurofins (radiometric) / Eurofins DiscoverX scanMAX / Reaction Biology / SignalChem
The procedure, abridged: as §1

For assay [4], the target named is T4, JAK3(JH1domain-catalytic) (Homo sapiens, UniProt P52333).
T4 construct: JAK3(JH1domain-catalytic); purchased Eurofins (radiometric) / Eurofins DiscoverX scanMAX / Reaction Biology / SignalChem
Put shortly: as §1

Assay [5] deals with T5, PFCDPK1(P.falciparum) (Plasmodium falciparum, UniProt P62344).
T5 construct: purchased Eurofins (radiometric) / Eurofins DiscoverX scanMAX / Reaction Biology / SignalChem
The procedure, abridged:
as §1

The target of assay [6] is T6, TSSK3 (Homo sapiens, UniProt Q96PN8).
T6 construct: purchased Eurofins
T6 sequence (Q96PN8 1-268): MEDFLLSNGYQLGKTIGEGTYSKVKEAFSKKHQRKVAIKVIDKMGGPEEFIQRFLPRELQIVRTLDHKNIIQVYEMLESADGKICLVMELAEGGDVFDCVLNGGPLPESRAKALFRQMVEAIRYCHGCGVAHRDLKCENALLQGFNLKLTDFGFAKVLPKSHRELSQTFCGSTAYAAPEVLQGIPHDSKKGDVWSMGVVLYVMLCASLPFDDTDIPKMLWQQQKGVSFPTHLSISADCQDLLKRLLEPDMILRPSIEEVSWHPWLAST
Put shortly: as §1

Assay [7] concerns the target T7, GRK2 (Homo sapiens, UniProt P25098).
T7 construct: purchased Eurofins (radiometric) / Eurofins DiscoverX scanMAX / Reaction Biology / SignalChem
Put shortly: as §1

Assay [8] has as its target T8, NIK (Homo sapiens, UniProt Q99558).
T8 construct: purchased Eurofins (radiometric) / Eurofins DiscoverX scanMAX / Reaction Biology / SignalChem
The procedure, abridged:
as §1

T5 sequence (P62344 whole entry): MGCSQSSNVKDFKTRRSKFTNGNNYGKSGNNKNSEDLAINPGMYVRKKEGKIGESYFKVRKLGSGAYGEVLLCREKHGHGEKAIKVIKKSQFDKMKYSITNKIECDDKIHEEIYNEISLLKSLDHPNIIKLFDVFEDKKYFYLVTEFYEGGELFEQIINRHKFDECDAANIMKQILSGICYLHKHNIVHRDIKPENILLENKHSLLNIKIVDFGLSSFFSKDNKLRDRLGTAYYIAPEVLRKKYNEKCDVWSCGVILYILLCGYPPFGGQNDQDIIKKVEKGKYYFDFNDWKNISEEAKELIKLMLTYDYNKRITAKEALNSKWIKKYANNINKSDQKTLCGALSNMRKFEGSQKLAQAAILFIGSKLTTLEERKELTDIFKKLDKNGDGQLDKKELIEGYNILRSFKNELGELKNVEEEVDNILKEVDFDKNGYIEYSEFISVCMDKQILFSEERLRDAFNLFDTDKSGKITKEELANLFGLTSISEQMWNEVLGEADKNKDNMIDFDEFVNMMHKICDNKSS
T8 sequence (Q99558 whole entry): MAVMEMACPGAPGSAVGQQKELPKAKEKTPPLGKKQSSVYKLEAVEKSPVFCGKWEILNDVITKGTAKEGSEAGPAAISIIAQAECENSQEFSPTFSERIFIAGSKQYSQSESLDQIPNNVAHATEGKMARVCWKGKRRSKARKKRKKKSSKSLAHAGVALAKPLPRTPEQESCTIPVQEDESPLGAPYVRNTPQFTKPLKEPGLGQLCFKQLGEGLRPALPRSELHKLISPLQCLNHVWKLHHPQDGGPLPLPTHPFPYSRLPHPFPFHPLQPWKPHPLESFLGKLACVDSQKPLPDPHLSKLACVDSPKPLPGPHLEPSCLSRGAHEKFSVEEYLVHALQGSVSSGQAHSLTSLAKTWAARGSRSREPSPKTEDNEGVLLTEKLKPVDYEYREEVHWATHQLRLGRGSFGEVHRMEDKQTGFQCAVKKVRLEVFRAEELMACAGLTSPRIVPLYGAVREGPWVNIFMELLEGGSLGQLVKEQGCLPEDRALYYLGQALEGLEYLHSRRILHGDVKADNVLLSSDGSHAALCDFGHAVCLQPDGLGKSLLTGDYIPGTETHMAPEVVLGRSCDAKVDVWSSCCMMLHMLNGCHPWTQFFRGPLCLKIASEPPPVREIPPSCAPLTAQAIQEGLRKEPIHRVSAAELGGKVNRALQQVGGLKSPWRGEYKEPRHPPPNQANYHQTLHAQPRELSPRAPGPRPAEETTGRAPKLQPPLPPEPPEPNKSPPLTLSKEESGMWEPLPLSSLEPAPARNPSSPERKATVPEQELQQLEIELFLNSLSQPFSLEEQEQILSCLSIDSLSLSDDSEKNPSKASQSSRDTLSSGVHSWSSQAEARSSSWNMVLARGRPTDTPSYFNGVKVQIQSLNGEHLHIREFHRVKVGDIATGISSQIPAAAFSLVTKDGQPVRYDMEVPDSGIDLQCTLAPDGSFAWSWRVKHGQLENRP
T7 sequence (P25098 whole entry): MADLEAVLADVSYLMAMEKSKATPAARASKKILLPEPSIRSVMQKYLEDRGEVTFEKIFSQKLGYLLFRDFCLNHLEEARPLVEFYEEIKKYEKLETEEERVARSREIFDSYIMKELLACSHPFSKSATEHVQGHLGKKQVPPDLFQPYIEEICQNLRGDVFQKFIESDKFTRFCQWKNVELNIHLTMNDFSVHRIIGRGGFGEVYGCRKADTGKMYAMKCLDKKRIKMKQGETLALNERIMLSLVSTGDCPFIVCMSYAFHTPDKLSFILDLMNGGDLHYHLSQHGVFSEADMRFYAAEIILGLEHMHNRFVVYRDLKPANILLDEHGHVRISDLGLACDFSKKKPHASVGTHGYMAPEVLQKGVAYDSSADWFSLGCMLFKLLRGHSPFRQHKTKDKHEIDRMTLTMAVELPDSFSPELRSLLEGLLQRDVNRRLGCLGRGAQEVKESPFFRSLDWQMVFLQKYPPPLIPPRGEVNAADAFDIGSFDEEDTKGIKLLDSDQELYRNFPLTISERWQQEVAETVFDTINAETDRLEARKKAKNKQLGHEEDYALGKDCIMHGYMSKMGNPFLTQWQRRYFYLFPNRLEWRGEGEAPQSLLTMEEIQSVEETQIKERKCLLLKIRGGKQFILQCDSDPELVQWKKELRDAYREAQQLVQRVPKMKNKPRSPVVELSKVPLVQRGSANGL
T4 sequence (P52333 822-1111 limits assumed): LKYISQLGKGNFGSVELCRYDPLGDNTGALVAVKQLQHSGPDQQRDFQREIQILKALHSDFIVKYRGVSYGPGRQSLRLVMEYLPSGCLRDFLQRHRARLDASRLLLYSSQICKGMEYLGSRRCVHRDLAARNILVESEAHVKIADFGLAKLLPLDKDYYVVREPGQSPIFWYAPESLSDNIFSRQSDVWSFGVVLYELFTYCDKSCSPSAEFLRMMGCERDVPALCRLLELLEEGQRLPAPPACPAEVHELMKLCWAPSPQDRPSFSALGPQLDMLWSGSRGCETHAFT
T3 sequence (Q9UQ88 whole entry): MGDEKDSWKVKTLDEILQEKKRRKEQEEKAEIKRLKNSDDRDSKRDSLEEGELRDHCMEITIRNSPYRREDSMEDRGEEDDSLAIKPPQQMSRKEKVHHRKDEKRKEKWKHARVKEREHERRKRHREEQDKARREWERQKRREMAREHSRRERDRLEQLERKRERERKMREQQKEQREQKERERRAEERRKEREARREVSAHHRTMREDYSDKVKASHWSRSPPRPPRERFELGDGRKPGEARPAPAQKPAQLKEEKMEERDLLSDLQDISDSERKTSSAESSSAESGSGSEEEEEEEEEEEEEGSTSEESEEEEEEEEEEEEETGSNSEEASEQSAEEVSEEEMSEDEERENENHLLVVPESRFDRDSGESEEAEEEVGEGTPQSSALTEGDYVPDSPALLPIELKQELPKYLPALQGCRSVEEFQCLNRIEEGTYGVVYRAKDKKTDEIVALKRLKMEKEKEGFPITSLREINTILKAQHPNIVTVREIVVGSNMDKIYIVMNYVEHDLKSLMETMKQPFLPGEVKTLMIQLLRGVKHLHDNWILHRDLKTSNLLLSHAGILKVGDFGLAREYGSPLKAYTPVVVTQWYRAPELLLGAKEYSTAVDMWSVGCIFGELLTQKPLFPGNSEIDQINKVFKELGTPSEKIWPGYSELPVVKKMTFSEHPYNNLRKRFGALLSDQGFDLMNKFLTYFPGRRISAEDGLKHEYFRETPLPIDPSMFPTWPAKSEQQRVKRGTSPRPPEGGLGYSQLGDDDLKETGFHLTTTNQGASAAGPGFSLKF
T1 sequence (P49336 whole entry): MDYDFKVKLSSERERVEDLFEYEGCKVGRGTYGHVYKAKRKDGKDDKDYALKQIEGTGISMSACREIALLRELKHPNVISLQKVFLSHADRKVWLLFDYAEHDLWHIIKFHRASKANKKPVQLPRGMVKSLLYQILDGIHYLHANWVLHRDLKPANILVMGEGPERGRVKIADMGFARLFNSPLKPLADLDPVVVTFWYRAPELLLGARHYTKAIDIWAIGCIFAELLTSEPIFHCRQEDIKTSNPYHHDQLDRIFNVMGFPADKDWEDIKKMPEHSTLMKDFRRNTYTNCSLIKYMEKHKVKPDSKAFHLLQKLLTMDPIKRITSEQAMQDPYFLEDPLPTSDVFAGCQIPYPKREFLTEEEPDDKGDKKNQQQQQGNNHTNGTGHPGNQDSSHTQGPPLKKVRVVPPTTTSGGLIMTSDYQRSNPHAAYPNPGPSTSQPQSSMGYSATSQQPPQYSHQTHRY
T2 sequence (O94806 whole entry): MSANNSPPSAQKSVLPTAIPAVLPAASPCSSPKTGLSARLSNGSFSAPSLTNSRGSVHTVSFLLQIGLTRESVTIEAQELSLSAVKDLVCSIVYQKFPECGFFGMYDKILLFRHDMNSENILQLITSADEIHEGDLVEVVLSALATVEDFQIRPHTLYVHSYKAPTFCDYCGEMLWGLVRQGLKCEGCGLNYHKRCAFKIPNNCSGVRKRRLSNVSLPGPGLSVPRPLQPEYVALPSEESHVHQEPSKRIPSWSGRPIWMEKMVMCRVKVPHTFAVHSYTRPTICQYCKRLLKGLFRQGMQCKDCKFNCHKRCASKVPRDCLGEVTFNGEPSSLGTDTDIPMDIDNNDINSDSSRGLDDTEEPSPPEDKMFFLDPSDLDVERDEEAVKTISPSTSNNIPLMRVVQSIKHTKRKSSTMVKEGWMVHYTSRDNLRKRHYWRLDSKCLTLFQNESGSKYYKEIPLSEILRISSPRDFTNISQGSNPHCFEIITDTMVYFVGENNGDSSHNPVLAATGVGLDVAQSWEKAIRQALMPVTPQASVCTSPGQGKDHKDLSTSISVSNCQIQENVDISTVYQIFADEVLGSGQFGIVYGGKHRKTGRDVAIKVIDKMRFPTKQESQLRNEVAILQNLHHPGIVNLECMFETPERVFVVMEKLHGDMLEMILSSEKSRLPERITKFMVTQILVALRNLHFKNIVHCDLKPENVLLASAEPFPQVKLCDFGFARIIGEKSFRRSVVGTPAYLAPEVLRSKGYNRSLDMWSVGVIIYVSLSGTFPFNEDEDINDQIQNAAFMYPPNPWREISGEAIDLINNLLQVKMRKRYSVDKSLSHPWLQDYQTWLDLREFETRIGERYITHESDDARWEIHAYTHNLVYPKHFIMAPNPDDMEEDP

Consider `CC(C)(O)C#Cc1ccc2[nH]c3c(c2c1)-c1nc(N)ncc1CC3` [Compound 1], for which, in assay [1], the “CDK8 % control at 1000nM” value turned out to be 4.8 % control.
Take `CC(C)(O)C#Cc1ccc2[nH]cc(-c3ccnc(N)n3)c2c1` [Compound 3]: the “PRKD3 (PKD3) % control at 1000nM / DiscoverX PoC value” in assay [2] turned out to be 1.3 % control. The “CDC2L2 % control at 1000nM” value in assay [3] is 6.6 % control. Also, the “JAK3(JH1domain-catalytic) % control at 1000nM” value in assay [4] is 1.8 % control. Moreover, the “PFCDPK1(P.falciparum) % control at 1000nM” value in assay [5] is given as 7.8 % control. Further, the “TSSK3 % control at 1000nM / DiscoverX PoC value” in assay [6] was determined as 8.1 % control. Also, in assay [7], the “GRK2 % control at 1000nM” value was found to be 9.1 % control. The “NIK % control at 1000nM” value in assay [8] worked out at 9.4 % control.
